Assay results: patent US6369083B1, “2-methoxyimino-2 (pyrinyloxymethyl) phenyl acetamides with polyether derivatives on the pyridine ring” (Dow AgroSciences LLC, priority 1998, dated 2002)

How the values were obtained:
Type in all cases: in vivo
Erysiphe graminis = experiment: Powdery Mildew of Wheat (ERYSGT); settings: wheat (cultivar Monon), inoculated, sprayed at 25 ppm after 48 hours
Method: Compound Formulation: […] Final treatment volumes were obtained by adding nine volumes 0.05kOO aqueous Tween-20 or Triton X-100, depending upon the pathogen. Powdery Mildew of Wheat (Erysiphe graminis-[…]): Wheat (cultivar Monon) was grown in a soilless peat-based potting mixture (Metromix) until the seedlings were 1-2 leaf (BBCH 12). These plants were then inoculated with Erysiphe graminis by dusting spores from stock plants onto the test plants. After 48 hours the plants were sprayed to run off with the test compound at a rate of 25 ppm and then kept in the greenhouse until disease developed on the untreated control plants. The following table presents the activity of typical compounds of the present invention when evaluated in these experiments. The effectiveness of the test compounds in controlling disease was rated using the following scale: […]

Leptosphaeria nodorum = experiment: Glume blotch of wheat (LEPTNO); settings: wheat (cultivar Monon), sprayed at 100 ppm, inoculated after 24 hours
Method: Compound Formulation: […] Final treatment volumes were obtained by adding nine volumes 0.05kOO aqueous Tween-20 or Triton X-100, depending upon the pathogen. Glume blotch of wheat (Leptosphaeria nodorum-[…]): Wheat (cultivar Monon) was grown from seed in a soilless peat-based potting mixture (Metromix) until the seedlings were 1-2 leaf (BBCH 12). These plants were then sprayed to run off with the test compound at a rate of 100 ppm. After 24 hours the test plants were inoculated with an aqueous spore suspension of Leptosphaeria nodorum. The plants were then transferred to the greenhouse until disease developed on the untreated control plants. Brown rust (Puccinia recondita-PUCCRT): Wheat (cultivar Monon) was grown from seed in a soilless peat-based potting mixture (Metromix) until the seedlings were 1-2 leaf (BBCH 12). These plants were then sprayed to run off with the test compound at a rate of 100 ppm. After 24 hours the test plants were inoculated with an aqueous spore suspension of Puccinia recondita. The plants were then transferred to the greenhouse until disease developed on the untreated control plants. The following table presents the activity of typical compounds of the present invention when evaluated in these experiments. The effectiveness of the test compounds in controlling disease was rated using the following scale: […]

Plasmopara viticola = experiment: Downy Mildew of Grape (PLASVI), 96 hour protectant; settings: grape vines (cultivar Carignane), sprayed at 100 ppm, inoculated after 96 hours (protectant)
Method: Compound Formulation: […] Final treatment volumes were obtained by adding nine volumes 0.05kOO aqueous Tween-20 or Triton X-100, depending upon the pathogen. Downy Mildew of Grape (Plasmogara viticola-[…]) (96 Hour Protectant): Vines (cultivar Carignane) were grown from seed in a soilless peat-based potting mixture (Metromix) until the seedlings were 10-20 cm tall. These plants were then sprayed to run off with the test compound at a rate of 100 ppm. After 96 hours the test plants were inoculated by spraying with an aqueous sporangia suspension of Plasmopara viticola. The plants were then transferred to the greenhouse until disease developed on the untreated control plants. The following table presents the activity of typical compounds of the present invention when evaluated in these experiments. The effectiveness of the test compounds in controlling disease was rated using the following scale: […]

Septoria tritici = experiment: Septoria leaf spot (SEPTTR); settings: wheat (cultivar Monon), sprayed at 100 ppm, inoculated after 24 hours
Method: Compound Formulation: […] Final treatment volumes were obtained by adding nine volumes 0.05kOO aqueous Tween-20 or Triton X-100, depending upon the pathogen. Septoria leaf spot (Septoria tritici-[…]): Wheat (cultivar Monon) was grown from seed in a soilless peat-based potting mixture (Metromix) until the seedlings were 1-2 leaf (BECH 12). These plants were then sprayed to run off with the test compound at a rate of 100 ppm. After 24 hours the test plants were inoculated with an aqueous spore suspension of Septoria tritici. The plants were then transferred to the greenhouse until disease developed on the untreated control plants. The following table presents the activity of typical compounds of the present invention when evaluated in these experiments. The effectiveness of the test compounds in controlling disease was rated using the following scale: […]

| Compound | ERYSGT control of plant disease (Erysiphe graminis) | LEPTNO control of plant disease (Leptosphaeria nodorum) | PLASVI control of plant disease (Plasmopara viticola) | SEPTTR control of plant disease (Septoria tritici) |
| --- | --- | --- | --- | --- |
| CCOCCOc1cccc(OCc2ccccc2C(=NOC)C(=O)NC)n1 [Compound 17] | + (+ = 25-74% control of plant disease) | ++ (++ = 75-100 % control of plant disease) | ++ (++ = 75-100 % control of plant disease) | – |
| CCCCCOCCOc1cccc(OCc2ccccc2C(=NOC)C(=O)NC)n1 [Compound 61] | – | – | ++ (++ = 75-100 % control of plant disease) | ++ (++ = 75-100 % control of plant disease) |
| CNC(=O)C(=NOC)c1ccccc1COc1cccc(SCCSC(C)(C)C)n1 [Compound 52] | ++ (++ = 75-100 % control of plant disease) | + (+ = 25-74% control of plant disease) | ++ (++ = 75-100 % control of plant disease) | – |
| CCCCC(CC)COCCOc1cccc(OCc2ccccc2C(=NOC)C(=O)NC)n1 (centres unmarked) [Compound 56] | – | – | ++ (++ = 75-100 % control of plant disease) | ++ (++ = 75-100 % control of plant disease) |
| CNC(=O)C(=NOC)c1ccccc1COc1cccc(OCCCOC(C)C)n1 [Compound 54] | ++ (++ = 75-100 % control of plant disease) | ++ (++ = 75-100 % control of plant disease) | ++ (++ = 75-100 % control of plant disease) | – |
| CCOCCCCOc1cccc(OCc2ccccc2C(=NOC)C(=O)NC)n1 [Compound 65] | – | – | ++ (++ = 75-100 % control of plant disease) | ++ (++ = 75-100 % control of plant disease) |
| CNC(=O)C(=NOC)c1ccccc1COc1cccc(OCCOC(C)C)n1 [Compound 53] | ++ (++ = 75-100 % control of plant disease) | − (− = 0-24% control of plant disease) | ++ (++ = 75-100 % control of plant disease) | – |
| CNC(=O)C(=NOC)c1ccccc1COc1cccc(OCCCCCOCc2ccccc2)n1 [Compound 66] | – | – | ++ (++ = 75-100 % control of plant disease) | ++ (++ = 75-100 % control of plant disease) |
| CCOCCOc1nc(OCc2ccccc2C(=NOC)C(=O)NC)ccc1Cl [Compound 24, Benzeneacetamide, 2-[[[5-chloro-6-(2-ethoxyethoxy)-2-pyridinyl]oxy]methyl]-α-(methoxyimino)-N-methyl-] | ++ (++ = 75-100 % control of plant disease) | + (+ = 25-74% control of plant disease) | ++ (++ = 75-100 % control of plant disease) | – |
| CNC(=O)C(=NOC)c1ccccc1COc1cccc(Oc2ccccc2OC)n1 [Compound 81] | – | – | – | + (+ = 25-74% control of plant disease) |
| CNC(=O)C(=NOC)c1ccccc1COc1cccc(OCCOC2CCC2)n1 [Compound 58] | – | – | ++ (++ = 75-100 % control of plant disease) | ++ (++ = 75-100 % control of plant disease) |
| CNC(=O)C(=NOC)c1ccccc1COc1cccc(OCCOC2CCCCC2)n1 [Compound 62] | – | – | ++ (++ = 75-100 % control of plant disease) | + (+ = 25-74% control of plant disease) |
| CNC(=O)C(=NOC)c1cccc(F)c1COc1cccc(OCCCOC(C)C)n1 [Compound 79] | – | – | – | ++ (++ = 75-100 % control of plant disease) |
| CNC(=O)C(=NOC)c1ccccc1COc1cccc(OCCCOCCCOC)n1 [Compound 71] | – | – | – | − (− = 0-24% control of plant disease) |
| CNC(=O)C(=NOC)c1ccccc1COc1cccc(SCc2ccc(OC)cc2)n1 [Compound 57] | – | – | – | ++ (++ = 75-100 % control of plant disease) |
| Benzeneacetamide, 2-[[[6-(2-(2-ethoxyethoxy)ethoxy) -2-pyridinyl]oxy]methyl]-α-(methoxyimino)-N-methyl- [Compound 21] | – | + (+ = 25-74% control of plant disease) | ++ (++ = 75-100 % control of plant disease) | – |
| CCOCCCOc1cccc(OCc2c(Cl)cccc2C(=NOC)C(=O)NC)n1 [Compound 78] | – | – | – | ++ (++ = 75-100 % control of plant disease) |

| Compound | ERYSGT control of plant disease (Erysiphe graminis) | LEPTNO control of plant disease (Leptosphaeria nodorum) | PLASVI control of plant disease (Plasmopara viticola) | SEPTTR control of plant disease (Septoria tritici) |
| --- | --- | --- | --- | --- |
| CNC(=O)C(=NOC)c1ccccc1COc1cccc(OCc2ccc(OC)cc2)n1 [Compound 83] | – | – | – | ++ (++ = 75-100 % control of plant disease) |
| CCOc1ccc(Oc2cccc(OCc3ccccc3C(=NOC)C(=O)NC)n2)cc1 [Compound 68] | – | – | ++ (++ = 75-100 % control of plant disease) | + (+ = 25-74% control of plant disease) |
| CNC(=O)C(=NOC)c1ccccc1COc1cccc(OCCOC(CCC#N)OC)n1 (centres unmarked) [Compound 73] | – | – | – | − (− = 0-24% control of plant disease) |
| CCOCCCOc1cccc(OCc2c(F)cccc2C(=NOC)C(=O)NC)n1 [Compound 77] | – | – | – | ++ (++ = 75-100 % control of plant disease) |
| CCOCCCOc1cccc(OCc2ccccc2C(=NOC)C(=O)NC)n1 [Compound 55] | + (+ = 25-74% control of plant disease) | + (+ = 25-74% control of plant disease) | – | – |
| CCOCCOCCOc1nc(OCc2ccccc2C(=NOC)C(=O)NC)c(Cl)cc1Cl [Compound 16] | ++ (++ = 75-100 % control of plant disease) | + (+ = 25-74% control of plant disease) | ++ (++ = 75-100 % control of plant disease) | – |
| CCCOCCCOc1cccc(OCc2ccccc2C(=NOC)C(=O)NC)n1 [Compound 89] | + (+ = 25-74% control of plant disease) | − (− = 0-24% control of plant disease) | − (− = 0-24% control of plant disease) | – |
| CCOc1cccc2nc(Sc3cccc(OCc4ccccc4C(=NOC)C(=O)NC)n3)sc12 [Compound 13] | − (− = 0-24% control of plant disease) | + (+ = 25-74% control of plant disease) | + (+ = 25-74% control of plant disease) | – |
| CCOCCOc1nc(OCc2ccccc2C(=NOC)C(=O)NC)c(Cl)cc1Cl [Compound 18] | + (+ = 25-74% control of plant disease) | ++ (++ = 75-100 % control of plant disease) | ++ (++ = 75-100 % control of plant disease) | – |
| CCCCCOCCOc1cccc(OCc2c(F)cccc2C(=NOC)C(=O)NC)n1 [Compound 75] | – | – | – | ++ (++ = 75-100 % control of plant disease) |
| CNC(=O)C(=NOC)c1cccc(Cl)c1COc1cccc(OCCCOC(C)C)n1 [Compound 80] | – | – | – | ++ (++ = 75-100 % control of plant disease) |
| CCCOCCOc1cccc(OCc2c(Cl)cccc2C(=NOC)C(=O)NC)n1 [Compound 60] | – | – | ++ (++ = 75-100 % control of plant disease) | ++ (++ = 75-100 % control of plant disease) |
| CCCCCCOCCOc1cccc(OCc2ccccc2C(=NOC)C(=O)NC)n1 [Compound 70] | – | – | + (+ = 25-74% control of plant disease) | + (+ = 25-74% control of plant disease) |
| CCCOCCOCCOc1nc(OCc2ccccc2C(=NOC)C(=O)NC)c(Cl)cc1Cl [Compound 19] | + (+ = 25-74% control of plant disease) | ++ (++ = 75-100 % control of plant disease) | + (+ = 25-74% control of plant disease) | – |
| CNC(=O)C(=NOC)c1ccccc1COc1cccc(OCc2ccccc2OC)n1 [Compound 82] | – | – | – | ++ (++ = 75-100 % control of plant disease) |
| CCOc1ccccc1Oc1cccc(OCc2ccccc2C(=NOC)C(=O)NC)n1 [Compound 64] | – | – | ++ (++ = 75-100 % control of plant disease) | ++ (++ = 75-100 % control of plant disease) |
